# From patent US10905120B2, “ABA receptor agonists that modulate transpiration” (The Regents of the University of California, priority 2016, dated 2021)
# Read-outs that look alike come from different tables or passages of the source.
# What was measured:
# PYL2^V114I mutant [1] = biological target: T1, PYL2^V114I mutant (Arabidopsis thaliana, UniProt O80992, V114I); conditions: cited from earlier work
# T1 construct: made in house
# PYR1^I110V mutant [2] = biological target: T2, PYR1^I110V mutant (Arabidopsis thaliana, UniProt O49686, I110V); conditions: cited from earlier work
# T2 construct: made in house
# [3] = tested on: Arabidopsis thaliana seeds; test: Germination assay; assay type: in vivo; conditions: Minimal Inhibitory Concentration, 3 d in darkness after 4 d stratification
# Description: Germination experiments were performed with Arabidopsis thaliana seeds of wildtype Col0, Ler, or mutant backgrounds.
# Seeds were sterilized by 30 sec incubation in 70% ethanol solution followed by a 5 min […] (while vigorously shaking) in a bleach-Tween solution. Afterwards, the sterilizing solutions were removed, and five washes were performed with sterile distilled water. To enhance complete removal of the solutions between the different steps, short centrifuge spins were performed. Finally, the now surface-sterilized seeds were re-suspended in an aseptic 0.1% agar solution to simplify distribution over multiwall plates. One drop of the solution contained on average 20-30 seeds.
# In the multiwell plates, seeds were plated onto 0.7% agar Murashige amd Skoog (MS) plant growth medium containing one-half MS salts and 0.5% sucrose containing different concentrations of ABA, quinabactin, or the compound of interest. After 4 d of stratification at 4° C., the plates were transferred to a growth chamber in darkness and allowed to germinate for 3 d before germination was evaluated. The results are shown above in Table 1 and FIGS. 3A and 3B.
# PYR1 = biological target: T3, PYR1 (Arabidopsis thaliana, UniProt O49686); test: PP2C inhibition assay, recombinant PYR1 receptor; assay type: biochemical
# T3 sequence (O49686 1-191): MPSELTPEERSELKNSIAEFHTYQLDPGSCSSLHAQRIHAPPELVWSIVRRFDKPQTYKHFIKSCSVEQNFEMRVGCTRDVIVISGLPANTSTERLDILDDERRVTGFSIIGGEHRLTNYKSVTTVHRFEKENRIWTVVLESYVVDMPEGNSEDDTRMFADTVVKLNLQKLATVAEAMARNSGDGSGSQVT
# T3 sequence (Q9CAJ0 23-511 partner): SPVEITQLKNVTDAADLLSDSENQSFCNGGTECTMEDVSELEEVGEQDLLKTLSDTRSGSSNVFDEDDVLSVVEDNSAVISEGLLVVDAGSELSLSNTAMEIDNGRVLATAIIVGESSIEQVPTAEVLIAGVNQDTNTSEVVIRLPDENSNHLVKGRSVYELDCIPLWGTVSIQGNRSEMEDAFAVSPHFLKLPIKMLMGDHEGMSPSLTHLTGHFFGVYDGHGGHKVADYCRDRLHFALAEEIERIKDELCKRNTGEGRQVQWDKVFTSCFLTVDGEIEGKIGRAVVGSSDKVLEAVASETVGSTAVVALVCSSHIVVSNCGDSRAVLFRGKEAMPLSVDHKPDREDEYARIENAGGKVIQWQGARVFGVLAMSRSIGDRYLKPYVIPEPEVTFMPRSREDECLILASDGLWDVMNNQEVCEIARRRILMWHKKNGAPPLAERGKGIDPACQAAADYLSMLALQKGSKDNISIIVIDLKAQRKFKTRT
# Description: (§1) Reactions were started by adding 40 μL of a reaction solution containing 25 mM 4-nitrophenyl phosphate in assay buffer, after which absorbance measurements were immediately collected using a 405 nm on Wallac plate reader. Reactions contained 100 nM PP2C and 200 nM PYR/PYL proteins. […] The dose response data was fitted to a log (inhibitor) vs response-(variable slope) model using non-linear regression to infer the IC50 values using Graph Pad Prism 6.0.
# adult Arabidopsis plants = test: Thermal imaging assay of sprayed adult plants; assay type: in vivo; conditions: sprayed at 50 uM dose on adult Arabidopsis plants; compared with quinabactin and ABA at the same dose
# Excerpt: Molecules that elicit ABA-like effects in vivo typically close guard cells, which arrests transpirational water loss, resulting in less efficient cooling of the leaf surface and a concomitant increase in leaf surface temperature. Infrared thermography has recently emerged as an attractive, noninvasive technique to evaluate plant leaf surface temperature.
# For the adult plants used for thermal imaging, seeds were sterilized as described in Example 3. Afterwards, the seeds were spread onto 0.7% agar MS plant growth medium containing one-half MS salts and 0.5% sucrose. After 4 d of stratification at 4° C., these plates were transferred to a growth chamber in light and allowed to germinate and grow for 7 d. The seedlings then were transferred into soil, and plants of 3-4 wk old were used for thermal imaging. Before thermal imaging, topical spraying of the plants was performed with a water solution containing an active agent (50 μM ABA, quinabactin, or a test compound of interest), 0.5% DMSO, and 0.02% polyalkyleneoxide modified heptamethyltrisiloxane surfactant (Silwet-77). Thermal images were collected just before spraying, 24 h after treatment, and 48 h after treatment. Treated plants were compared to mock-treated plants that had been sprayed with water containing 0.5% DMSO and 0.02% Silwet-77.
# Thermal images were collected at 16 h after treatment. Thermal images were quantified using the Flir tools software version 5.2.15161.1001 by measuring the average leaf temperature of 5-6 leaves per plant. Average temperatures were calculated for 10 replicate plants (in 5 pots) per treatment. Statistical comparisons between the treated and the mock-treated plants were performed using pairwise t-tests. In the graphs represented in FIG. 1B, error bars represent the standard error of mean, asterisks symbols indicate statistical significance, and * indicates p≤0.05, ** for p≤0.01, *** for p≤0.001.
# PYL2 = biological target: T4, PYL2 (Arabidopsis thaliana, UniProt O80992); test: PP2C inhibition assay, recombinant PYL2 receptor; assay type: biochemical
# T4 sequence (O80992 1-190): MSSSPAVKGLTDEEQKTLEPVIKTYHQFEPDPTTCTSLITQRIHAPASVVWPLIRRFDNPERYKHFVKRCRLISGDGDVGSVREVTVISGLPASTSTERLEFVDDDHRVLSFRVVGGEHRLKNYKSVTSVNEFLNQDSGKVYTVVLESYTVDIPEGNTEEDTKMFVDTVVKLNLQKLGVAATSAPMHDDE
# T4 sequence (Q9CAJ0 23-511 partner): T3 sequence (Q9CAJ0 23-511 partner)
# Description: as §1
# PYL2^V114I mutant [4] = biological target: T1, PYL2^V114I mutant; test: Phosphatase inhibition assay with PYL2 V114I mutant; assay type: biochemical
# Description: (§2) Without intending to be bound by theory, subtle changes in the binding pockets of PYR1/PYL2 proteins can dictate the orientation of pyrabactin and contribute towards its selectivity towards PYR1 vs PYL2. […] Cyanabactin's activity was tested with the PYR1^I110V and the reciprocal PYL2^V114I mutants to provide possible insights into its selectivity for PYR1 vs PYL2.
# (§3) Recombinant PYR1^I110V and PYL2^V114I proteins were prepared using a previously described protocol previously (Peterson Peterson, F. C. et al., “Structural Basis for Selective Activation of ABA Receptors,” Nat. Struct. Mol. Biol. 2010, 17 (99), 1109-1113) and tested in absorbance based phosphatase inhibition assay using p-nitrophenol phosphate as substrate as previously described.
# PYR1^I110V mutant [5] = biological target: T2, PYR1^I110V mutant; test: Phosphatase inhibition assay with PYR1 I110V mutant; assay type: biochemical
# Description: as §2, §3
# [6] = recombinant receptor 200 nM, PP2C 100 nM, 4-nitrophenyl phosphate substrate, absorbance 405 nm, read-out: IC50 PYR1
# [7] = recombinant receptor 200 nM, PP2C 100 nM, 4-nitrophenyl phosphate substrate, absorbance 405 nm, read-out: IC50 PYL2
# [8] = recombinant mutant receptor, p-nitrophenol phosphate substrate
# T1 sequence (O80992 whole entry V114I, one chain of several): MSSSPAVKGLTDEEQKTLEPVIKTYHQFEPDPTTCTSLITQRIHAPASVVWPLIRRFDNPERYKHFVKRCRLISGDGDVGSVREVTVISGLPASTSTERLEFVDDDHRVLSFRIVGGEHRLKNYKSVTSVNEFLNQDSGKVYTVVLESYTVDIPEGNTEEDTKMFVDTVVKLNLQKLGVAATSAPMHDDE
# T2 sequence (O49686 whole entry I110V, one chain of several): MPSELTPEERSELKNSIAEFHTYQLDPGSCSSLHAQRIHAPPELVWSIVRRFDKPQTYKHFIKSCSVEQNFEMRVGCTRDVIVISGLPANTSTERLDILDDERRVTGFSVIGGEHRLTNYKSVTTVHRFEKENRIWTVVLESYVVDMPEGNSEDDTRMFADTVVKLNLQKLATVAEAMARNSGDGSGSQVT
Compound,IC50 (PYR1; [6]) [nM],IC50 (PYL2; [7]) [nM],responsiveness of PYL2^V114I mutant as compared to WT PYL2 (PYL2^V114I mutant [1]),responsiveness of PYR1^I110V mutant as compared to wild-type PYR1 (PYR1^I110V mutant [2]),MIC (μM) Germination [3] [µM],increase of leaf surface temperature (adult Arabidopsis plants),IC50 (PYR1) [nM],IC50 (PYL2) [nM],fold more active in PYL2^V114I mutant as compared to WT PYL2 (PYL2^V114I mutant [4]; ratio of IC50s) [fold],IC50 (PYL2^V114I mutant [4]; [8]) [nM],fold less active in PYR1^I110V mutant as compared to WT PYR1 (PYR1^I110V mutant [5]; ratio of IC50s),IC50 (PYR1^I110V mutant [5]; [8]) [nM]
O=S(=O)(NCc1ccccn1)c1ccc(Br)c2ccccc12 [pyrabactin],,,gains pyrabactin responsiveness,dramatically loses pyrabactin responsiveness,,,,,,,,
"CC1=CC(=O)CC(C)(C)[C@@]1(O)/C=C/C(C)=C\C(=O)O [ABA, Abscisic acid, reference compound]",,,retained responsiveness,retained responsiveness,1,,111 ± 3.8,39 ± 2.3,,,,
"CCOc1cc(NS(=O)(=O)Cc2ccc(C)cc2)ccc1C#N [Ligand Q26, N-(4-Cyano-3-ethoxyphenyl)-1-(4-methylphenyl)methanesulfonamide]",112 ± 15,7460 ± 469,,,10,increase the leaf surface temperature significantly,,,,,,
"Cc1ccc(CS(=O)(=O)Nc2ccc(C#N)c(C3CC3)c2)cc1 [Ligand Q27, N-(4-Cyano-3-cyclopropylphenyl)-1-(4-methylphenyl)methanesulfonamide]",87,3270,,,5,increase the leaf surface temperature significantly,,,3.3,981,approximately 9 fold,787

# More lines, main results first:
IC50 (PYR1; [6]) [nM],IC50 (PYL2; [7]) [nM],Compound,responsiveness of PYL2^V114I mutant as compared to WT PYL2 (PYL2^V114I mutant [1]),responsiveness of PYR1^I110V mutant as compared to wild-type PYR1 (PYR1^I110V mutant [2]),MIC (μM) Germination [3] [µM],increase of leaf surface temperature (adult Arabidopsis plants),IC50 (PYR1) [nM],IC50 (PYL2) [nM],fold more active in PYL2^V114I mutant as compared to WT PYL2 (PYL2^V114I mutant [4]; ratio of IC50s) [fold],IC50 (PYL2^V114I mutant [4]; [8]) [nM],fold less active in PYR1^I110V mutant as compared to WT PYR1 (PYR1^I110V mutant [5]; ratio of IC50s),IC50 (PYR1^I110V mutant [5]; [8]) [nM]
100 ± 0.4,2910 ± 270,"CCCc1cc(NS(=O)(=O)Cc2ccc(C)cc2)ccc1C#N [Ligand Q31, N-(4-Cyano-3-propylphenyl)-1-(4-methylphenyl)methanesulfonamide]",,,10,to a lesser extent,,,,,,
72 ± 15,969 ± 77,"CCc1cc(NS(=O)(=O)Cc2ccc(C)cc2)cc(C)c1C#N [Ligand Q30, N-(4-Cyano-3-ethyl-5-methylphenyl)-1-(4-methylphenyl)methanesulfonamide]",,,10,increase the leaf surface temperature significantly,,,,,,
48 ± 0.3,2700 ± 64,"CCc1cc(NS(=O)(=O)Cc2ccc(C)cc2)ccc1C#N [Ligand Q29, N-(4-Cyano-3-ethylphenyl)-1-(4-methylphenyl)methanesulfonamide]",,,5,to a lesser extent,,,,,,
